Data on eleven molecules can be found in PubChem BioAssay (NCI).

What all share (test): inhibition of tumour cell growth, NCI panel, 48 h
Assay [1] deals with DU-145 prostate.
Assay [2] deals with HL-60(TB) leukemia.
In assay [3] the test system is HOP-92 NSCLC.
For assay [4], the system named is HT29 colon.
Assay [5] has as its system LOX IMVI melanoma.
In assay [6] the test system is NCI-H226 lung.
Assay [7] deals with OVCAR-3 ovarian.
The subject of assay [8] is SW-620 colon.
The test system of assay [9] is U251 CNS.
In assay [10] the test system is UO-31 renal.

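Five concentrations, 48 hours, 96-well plates. TGI is the concentration that stops growth completely.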 Bounds are passed on as bounds.

On to `C=C1C(=O)[C@]23C[C@H]1C[C@@H](O)[C@H]2[C@]1(COC3=O)[C@@H](OC(C)=O)CC[C@@](C)(COC(C)=O)[C@H]1C=O`, for which the TGI is more than 50 µM in [1]; 16.6 µM in assay [2]; 22.3 µM in assay [3]; more than 50 µM in assay [4]; more than 50 µM in [5]; 19 µM in assay [6]. For the same molecule, the TGI in [7] is more than 50 µM; in assay [8], 18.7 µM; in [9], more than 50 µM; in [10], more than 50 µM.

With `N#CCCN(CCC#N)c1ccc(/C=C2\SC(=S)NC2=O)cc1`, the TGI in assay [1], in assay [2], in assay [3], in [4], in [5] and in assay [6] was more than 100 µM each time. For the same molecule, the TGI in assay [7] was more than 100 µM; in [8], more than 100 µM; in assay [9] it was 47 µM; in assay [10], more than 100 µM.

On to `NC(=S)Nc1ccc2c(c1)oc1ccccc12`, for which the TGI in [1], in assay [2], in [3], in assay [4], in assay [5] and in assay [6] was more than 100 µM throughout. In addition, the TGI in assay [7], in assay [8], in assay [9] and in [10] was more than 100 µM in each case.

`COc1ccc(C(=O)c2c(-c3ccccc3NC(=O)C(F)(F)F)[nH]c3ccccc23)cc1`: the TGI was found to be 17 µM in assay [1]; 13.6 µM in assay [2]; 27.6 µM in assay [3]; 16.5 µM in assay [4]; 16.1 µM in assay [5]; 37.9 µM in [6]. In addition, the TGI in assay [7] was 8.67 µM; in [8] it was 16.7 µM; in assay [9], 7.17 µM; in assay [10] it was 19.4 µM.

As for `Cc1nc2ccccc2c(=O)n1NC(=O)c1ccccc1[N+](=O)[O-]`, the TGI in assay [1], in [2], in [3], in assay [4], in assay [5] and in assay [6] was more than 100 µM each time. The TGI in assay [7], in assay [8], in assay [9] and in assay [10] was more than 100 µM each time.

`Cc1ccc(S(=O)(=O)NC(=O)NCCc2ccc(O)c(O)c2)cc1`: the TGI in assay [1], in [2], in assay [3], in assay [4], in assay [5] and in assay [6] was more than 100 µM each time. The TGI in assay [7], in [8], in assay [9] and in assay [10] was more than 100 µM each time.

For `C=CC(C)(C)C1(CC(OC)OC)C(=O)N(C)c2ccccc21` (stereo not given), the TGI in assay [1], in [2], in assay [3], in assay [4], in [5] and in [6] was more than 25 µM in each case. Besides, the TGI in [7], in assay [8], in assay [9] and in assay [10] was more than 25 µM each time.

In the case of `C/C(=N/NC(=S)Nc1cccc(Cl)c1)c1ccccn1`, the TGI in assay [1] worked out at 4.98 µM; in [2] it was 0.5 µM; in [3], 11.1 µM; in [4] it was 13.9 µM; in assay [5], 9.49 µM; in assay [6], 2.59 µM. Also, the TGI in [7] was 12.3 µM; in assay [8], 17.9 µM; in assay [9] it was 8.26 µM; in [10], 5.03 µM.

For the molecule `Nc1ncnc2c1ncn2C1OC(CO)C(O)C1NS(=O)(=O)c1ccccc1` (stereo not given), the TGI in [1], in assay [2], in assay [3], in assay [4], in [5] and in assay [6] was more than 100 µM each time. For the same molecule, the TGI in [7], in [8], in assay [9] and in assay [10] was more than 100 µM each time.

For the molecule `O=C(NNS(=O)(=O)c1ccc(Br)cc1)c1ccc(Cl)cc1NC(=O)C12CC3CC(CC(C3)C1)C2`, the TGI in assay [1] was 33.4 µM; in assay [2] it was 67.9 µM; in assay [3], 27.3 µM; in assay [4], 27.2 µM; in assay [5], 28.4 µM; in [6], 35.6 µM. Also, the TGI is 26.5 µM in assay [7], 41.4 µM in [8], 22.7 µM in assay [9] and 24.2 µM in [10].

As for `N#C/C(=C/n1c(=S)[nH]c2ccccc21)C(N)=O`, the TGI is more than 100 µM in [1]; 30.4 µM in [2]; more than 100 µM in assay [3]; more than 100 µM in assay [4]; more than 100 µM in [5]; more than 100 µM in assay [6]. For the same molecule, the TGI in assay [7], in [8], in assay [9] and in assay [10] was more than 100 µM in each case.
